Test results reported in PubChem BioAssay (NCI).
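Following 48 hours of exposure in 96-well plates, responses at five concentrations were used to interpolate endpoints linearly. The concentration for 50% growth inhibition is given as GI50. At the TGI there is no net growth.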

What was measured:
Assay in all cases: NCI tumour cell line growth inhibition, 48 h
[1] = tested on: HOP-62 NSCLC
[2] = tested on: SR leukemia
[3] = tested on: NCI-H23 lung
[4] = tested on: K-562 leukemia
[5] = tested on: OVCAR-3 ovarian
[6] = tested on: NCI-H226 lung
[7] = tested on: HS 578T breast
[8] = tested on: CAKI-1 renal
[9] = tested on: MDA-N
[10] = tested on: ACHN renal
[11] = tested on: SK-OV-3 ovarian
[12] = tested on: SF-539 CNS
[13] = tested on: SNB-75 CNS
[14] = tested on: IGROV1 ovarian
[15] = tested on: OVCAR-4 ovarian
[16] = tested on: T-47D breast
[17] = tested on: UACC-257 melanoma
[18] = tested on: BT-549 breast

| SMILES | TGI [1] [µM] | TGI [2] [µM] | TGI [3] [µM] | TGI [4] [µM] | TGI [5] [µM] | TGI [6] [µM] | TGI [7] [µM] | TGI [8] [µM] | TGI [9] [µM] | TGI [10] [µM] | TGI [11] [µM] | TGI [12] [µM] | TGI [13] [µM] | TGI [14] [µM] | TGI [15] [µM] | TGI [16] [µM] | GI50 [7] [µM] | GI50 [15] [µM] | TGI [17] [µM] | TGI [18] [µM] |
| --- | --- | --- | --- | --- | --- | --- | --- | --- | --- | --- | --- | --- | --- | --- | --- | --- | --- | --- | --- | --- |
| CC(C)(CCCCC(C)(C)NC1=NCCO1)NC1=NCCO1 | > 10 | > 10 | > 10 | > 10 | > 10 | > 10 | > 10 | > 10 | > 10 | > 10 | > 10 | > 10 | > 10 | > 10 | > 10 | > 10 |  |  |  |  |
| O=c1c2ccccc2nc2n1CCc1c-2[nH]c2ccccc12 |  | > 100 | 37.4 | > 100 |  |  | 50.5 | 47.9 | 28.5 |  | 37.8 |  | 40.7 | 60.6 | 43.8 | 55.5 | 22.6 | 18.9 |  |  |
| O=c1c(-c2ccccc2)c(SCCCN2CCCCC2)n(-c2ccccc2)c(=S)n1-c1ccccc1 | 32.7 | 37.3 | 42.9 | 34.1 | 34.3 | 30.4 | > 100 | 38.7 |  | 34.4 | 45.4 | 30.4 | 29.5 | 35.7 | 58 |  |  |  | 31.9 | 35.5 |
| O=c1[nH]c2ccccc2c2oc3ccccc3c12 | > 100 | > 100 | > 100 | > 100 | > 100 | > 100 | > 100 | > 100 | > 100 | > 100 | > 100 | > 100 | 32.6 | > 100 | > 100 | > 100 |  |  | > 100 | > 100 |
| COC(=O)C1=C(O)C(C(=O)OC)[C@@]2(O)[C@@H](C(=O)OC)[C@H](C)C[C@@H]1[C@@H]2C(=O)OC (stereo partly drawn) | > 100 | > 100 | > 100 | > 100 | 40.2 | > 100 | 54.1 |  | 31.4 | > 100 | 72.9 | 34.1 | 78.1 |  |  | > 100 |  |  | > 100 | > 100 |
